Laboratory results as given in paper PMC7822874, “Chemoprotective antimalarials identified through quantitative high-throughput screening of Plasmodium blood and liver stage parasites” (Scientific Reports, 2021).
Like-named read-outs stand apart in the source and are kept apart here.

Experiments:
[1] = tested on: HepG2-A16-CD81EGFP cells; conditions: averaged response (percent)
[2] = tested on: P. berghei-ANKA-GFP-LucCON liver stage parasites in HepG2-A16-CD81EGFP cells; assay: P. berghei liver stage Pb-Luc assay, Method 1 (UCSD, 1536-well); format: cell-based, Plasmodium berghei; conditions: P. berghei liver stage, averaged response (percent); for Average P. berghei 1 µM response (%): the header list (r8) defines it as the 1 µM dose
[3] = tested on: P. falciparum Dd2 (clone B2) asexual blood stage parasites; assay: P. falciparum Dd2 asexual blood stage SYBR Green-I 72 h proliferation assay (qHTS); format: cell-based, Plasmodium falciparum; conditions: averaged P. falciparum asexual blood stage potency, log10 of AC50 in M
[4] = HepG2, the header list (r10) describes it as the 1 µM dose

| Compound | Average HepG2 3 µM response( %) ([1]; HepG2, 3 µM dose) [%] | Average HepG2 3 µM response( %) [1, 4] [%] | Average P. berghei 3 µM response( %) [2] [%] | Average P. berghei 1 µM response (%) [2] [%] | Pf ABS Log AC50 (M) [3] [M] |
| --- | --- | --- | --- | --- | --- |
| O=C(/C=C/c1ccco1)NC(=S)Nc1ccccc1N1CCCC1 [MLS000663784] | 105 | 105 | 104 | 113 | -5.575 |
| O=c1cc(-c2ccccc2)c2ccc3c(c2o1)CN(Cc1ccccc1)CO3 [NCGC00116340] | 100 | 102 | 76 | 87 | -5.575 |
| CCOC(=O)c1c[nH]c2c(C)cc(C)cc2c1=O [MLS000530578] | 102 | 102 | 9.48 | 49 | -5.437 |
| Cc1ccccc1NC(=O)Nc1ccc2nc(N3CCN(C)CC3)cc(C)c2c1 [NCGC00126513] | 106 | 104 | 104 | 110 | -5.825 |
| CCN(C(=O)CSc1nc(-c2ccc(C(C)C)cc2)no1)c1ccccc1 [NCGC00127904] | 105 | 102 | 98 | 117 | -6.025 |
| Cc1ccc(-n2c(C)cc(C(=O)OCC(=O)N(C)C3CCS(=O)(=O)C3)c2C)cc1 (stereo not drawn) [MLS000098265] | 101 | 101 | 106 | 136 | -5.487 |
| COc1cc(Br)c(C(C)NC(=O)c2cccc(Br)c2)cc1OC (stereo not drawn) [MLS000325399] | 93 | 98 | 70 | 107 | -5.887 |
| CC(C)C(=O)OCC(=O)[C@@]12O[C@H](C3CCCCC3)O[C@@H]1C[C@H]1[C@@H]3CCC4=CC(=O)C=C[C@]4(C)[C@H]3[C@@H](O)C[C@@]12C [NCGC00167484] | 92 | 94 | 125 | 137 | -5.762 |
| O=C(O)c1ccc(-c2nc3cnccc3[nH]2)cc1 [NCGC00375713] | 104 | 105 | 94 | 106 | -5.264 |
| CCOCCCNc1nc2cc(OC)c(OC)cc2c2nc(-c3ccccc3)nn12 [NCGC00112857] | 99 | 97 | 104 | 109 | -6.675 |
| CN1CCC(NCCC(c2ccc(F)cc2)c2ccc(Cl)cc2)CC1 (stereo not drawn) [MLS001215866] | 100 | 100 | 70 | 103 | -5.437 |
| CCN1CCN(Cc2ccc(NC(=O)c3cc(NC(=O)C(=O)c4c[nH]c5ccccc45)cc(OC)c3)cc2C(F)(F)F)CC1.O=C(O)C(F)(F)F [MLS003105970] | 106 | 106 | 54 | 132 | -6.175 |
| c1cc(Nc2ncnc3sc4c(c23)CCC4)ccn1 [MLS000681348] | 103 | 103 | 95 | 92 | -5.462 |
| CCCCn1c2c(c(=N)c3c1CCC3)CCC2 [MLS000080126] | 80 | 110 | 4 | 41 | -5.587 |
| CN(CC(=O)Nc1cccc(F)c1)C(=O)c1ccc(-c2cccc(C(F)(F)F)c2)o1 [MLS001139679] | 100 | 103 | 89 | 141 | -6.362 |
| COc1cc2c(cc1Oc1cccc(N(C)C)c1)NC(=O)C21CCN(c2cnccn2)CC1 [NCGC00416778] | 89 | 98 | 43 | 96 | -5.825 |
| O=C1CC(c2ccccc2)N(Cc2ccncc2)CCCN(C(=O)Nc2ccccc2F)CCN1 (stereo not drawn) [NCGC00467191] | 103 | 107 | 73 | 88 | -5.775 |

| Compound | Average HepG2 3 µM response( %) ([1]; HepG2, 3 µM dose) [%] | Average HepG2 3 µM response( %) [1, 4] [%] | Average P. berghei 3 µM response( %) [2] [%] | Average P. berghei 1 µM response (%) [2] [%] | Pf ABS Log AC50 (M) [3] [M] |
| --- | --- | --- | --- | --- | --- |
| CC(C)OCCCNc1sc([S+](=O)([O-])c2ccccc2)nc1[S+](=O)([O-])c1ccc(Cl)cc1 [NCGC00116822] | 94 | 93 | 76 | 75 | -6.575 |
| O=C1NCc2ccccc2CC12CCCN(Cc1ccccc1)C2 (stereo not drawn) [NCGC00377595] | 104 | 103 | 106 | 116 | -4.980 |
| Cc1ccc(O)c([C@H](CCN(C(C)C)C(C)C)c2ccccc2)c1 [NCGC00159519] | 104 | 100 | 83 | 97 | -5.437 |
| CCc1cccc(-n2c(=O)c3cccnc3n2CC(=O)Nc2ccc(F)c(C)c2)c1 [NCGC00128424] | 103 | 107 | 91 | 110 | -5.575 |
| COc1ccc(-c2c3c(nc4sc(C(=O)Nc5ccc(Cl)cc5)c(N)c24)CC(C)(C)CC3=O)cc1 [NCGC00100738] | 109 | 104 | 90 | 111 | -6.425 |
| CCOc1ccccc1CN1CCC2(CCN(CCC(C)C)CC2)Oc2ccccc21 [NCGC00478188] | 105 | 100 | 48 | 106 | -5.475 |
| Cn1ccc(NCc2nnc(C(=O)N3CCC[C@@H]3C(c3ccccc3)c3ccccc3)n2-c2ccccc2)n1 [NCGC00415774] | 99 | 96 | 89 | 95 | -5.875 |
| c1ccc(CNc2nc(-c3ccccn3)nc3ccccc23)cc1 [MLS001165148] | 87 | 96 | 8 | 72 | -5.662 |
| N=c1c2c(n(Cc3ccccc3)c3c1CCC3)CCC2 [MLS000080128] | 74 | 94 | 16 | 14 | -5.712 |
| Cc1cc(Cl)c(S(=O)(=O)N2CCN(c3ccccn3)CC2)cc1OCC(=O)NC1CCCCC1 [MLS000693481] | 100 | 93 | 74 | 99 | -6.387 |
| Br.CCOC(=O)c1c(CSC(=N)N)n(-c2ccc(Br)cc2)c2cc(Br)c(OC(C)=O)cc12 [MLS000595146] | 102 | 101 | 73 | 88 | -5.712 |
| O=C(c1ccc([N+](=O)[O-])o1)N1CCN(c2nc3c(F)cc(F)cc3s2)CC1 [MLS001234228] | 107 | 103 | 65 | 77 | -5.462 |
| Oc1ccc(C2NCc3ccccc3-n3cccc32)cc1Cl (stereo not drawn) [MLS000878874] | 105 | 105 | 82 | 96 | -5.925 |
| Oc1cc2c(cc1CN1CCN(c3ccccc3)CC1)CCC2 [MLS000058156] | 101 | 102 | 107 | 92 | -5.587 |
| CCOC(=O)N1CCc2c(sc3nc4n(c(=O)c23)N=C(c2ccc(OC)cc2)CS4)C1 [MLS000859689] | 98 | 100 | 87 | 113 | -5.012 |
| CCCN(CCC)CCNC(=O)c1cc2c(-c3ccc(Cl)cc3)nn(C)c2s1 [NCGC00108997] | 98 | 102 | 49 | 57 | -6.212 |
